In patent US20240208901A1, “Deuterated 3,3'-Diselenodipropionic Acid (DSePA) and Its Use as an Anticancer or Radioprotective Agent” (Secretary, Department of Atomic Energy, priority 2022, published 2024):

Experiments:
A549 cells = experiment: Clonogenic assay, combinatorial treatment with γ-irradiation in A549 cells; type: cell-based, human
Description: Further, clonogenic assay is considered as the gold standard method for evaluating the anticancer activity of any compound and is also a good indicator of the in vivo efficacy of any anticancer compound. Therefore, the therapeutic index of DSePA and D-DSePA in A549/WI-38 cells was also validated by employing the clonogenic assay. For this, A549/WI-38 cells were treated with the varying concentrations (0.1-2 μM)/(1-500 μM) of DSePA/D-DSePA for seven days and the survival fraction was calculated by counting the number of surviving clones (FIG. 11A). The plot of survival fraction verses the concentration of DScPA/D-DSCPA was used to estimate the IC50 of above compounds to inhibit the growth of A549/WI-38 cells. […] This clearly confirmed that deuteration of DScPA reduced its toxicity in normal cells without compromising its efficacy in cancer cells. Since anticancer agents are intended to be used in combination with radiation, DSePA/D-DSePA at a treatment concentration of 0.5 μM (dose close to IC50 as determined by clonogenic assay) was combined with varying absorbed doses (2-8 Gy) of γ-irradiation and the effect of combinatorial treatment on the viability of A549 cells was determined by clonogenic assay (FIG. 12A & 12B). For this, A549 cells exposed to the varying absorbed doses (2-8 Gy) of γ-radiation were immediately treated with DScPA/D-DScPA and cultured for seven days prior to clonogenic assay. […] The D10 value of the combinatorial treatment involving DScPA estimated was 4.5 Gy (FIG. 12B). Similarly, D10 value of the combinatorial treatment involving D-DSePA estimated was 4 Gy. From these values, the dose modification factor (DMF or the ratio of the D10 of combinatorial treatment to that of D10 of radiation) of DScPA and D-DScPA estimated was 0.87±0.01 and 0.83±0.02 respectively. […] While the objective of radiotherapy is to achieve tumor control, it is also known to cause normal tissue toxicity. Previously, DSePA has been reported to protect normal cells from lethal effects of γ-radiation. Thus radio-protective activity of D-DSePA was compared with DScPA in terms of their abilities to protect non-cancerous lung fibroblast (WI-38) cells against γ-irradiation induced cell death. For this, WI-38 cells were pretreated with DSePA/D-DScPA for 24 h at an identical concentration of 0.5 μM (close to IC50 required to inhibit growth of A549 lung cancer cells by clonogenic assay) and then exposed to varying doses (2-12 Gy) of γ-irradiation. The survival of cells against radiation exposure was estimated by clonogenic assay and the dose response curve was prepared in the presence and absence of drug (DSePA/D-DScPA) (FIG. 12C & 12D). By using this dose response curve, the dose modification factor (DMF or the ratio of the D10 of radiation plus drug and D10 of radiation alone) of DSePA and D-DSePA estimated was 1.12±0.03 and 1.16±0.05 respectively.
Clonogenic assay—Clonogenic assay was performed according to the method reported previously. […] After 7 days, colonies were fixed with absolute methanol for 5 min, stained with 0.5% crystal violet for 5 min, washed with distilled water to remove excess stain and counted manually under a stereo microscope. […] The plating efficiency and the survival fraction under irradiated and drug treated conditions were calculated using following formulae: […]
The plating efficiency of A549 and WI38 cells was calculated by seeding ˜300 and ˜500 cells respectively. […]

WI-26 VA4 cells = experiment: MTT assay, toxicity in non-cancerous lung fibroblast WI-26 VA4 cells; type: cell-based, human; conditions: Homo sapiens, WI26VA4, 48 h post treatment, read-out: IC50 for inhibiting the cell proliferation
Description: Therefore, D-DSePA was compared with un-deuterated DSePA for its anticancer activity in A549, H1975 and H3122 cell lines which are representative of NSCLC. […] The plot of percent (%) cytotoxicity (100-% viability) versus the concentration of DSePA/D-DSePA was used to estimate the half maximum concentration (IC50) of above compounds to inhibit the proliferation of cells. […] Similarly, the toxicity of DSePA/D-DSePA was studied in non-cancerous lung fibroblast cells, WI-38 and WI-26 VA4 in the concentration range of 0.1 to 1000 μM at 48 h post treatment by MTT assay (FIG. 9D and 9E). […] Employing these values, the therapeutic index (IC50 in normal lung cell/IC50 in lung cancer cell) of DSePA and D-DSePA in different pairs of normal versus cancerous cells (viz., A549/WI-38, A549/WI-26 VA4, H1975/WI-38, H1975/WI-26 VA4, H3122/WI-38 and H3122/WI-26 VA4) was calculated (Table-3). […]
MTT Assay—To evaluate the anti-proliferative effect of D-DScPA and DScPA, Cells (˜5×10^3) suspended in 100 μl of complete culture medium were seeded in each well of 96 well plates. […] The percentage (%) cytotoxicity was calculated from the decrease in absorbance at 570 nm of treated groups as compared to that of control group. […] The therapeutic index was calculated by normalizing the IC50 concentration of D-DSePA/DSePA in non-cancerous cells to that in cancerous cells.

## O=C(O)CC[Se][Se]CCC(=O)O [DSePA, 3,3′-diselenodipropionic acid]
A549 cells; 0.5 μM drug immediately after γ-radiation (2-8 Gy)
  dose modification factor (DMF, D10 of combinatorial treatment / D10 of radiation): 0.87±0.01
A549 cells; γ-radiation 2-8 Gy then 0.5 μM drug immediately, seven days, radiation alone D10 5 Gy
  D10 value (decimal reduction dose) of the combinatorial treatment: 4.5 Gy
WI-26 VA4 cells
  IC50: 151 ± 3.3 µM
